Assays:
Assay type in all cases: cell-based, human
[1] = system: A3A-mediated RNA editing (SDHB c.136 C>U) in monocyte-enriched PBMCs (MEPs); experiment: SDHB c.136 C>U RNA editing in monocyte-enriched PBMCs (allele specific RT-qPCR)
Experimental: (§1) Leukoreduction filters (Terumo BCT, Lakewood, Colo.), waste products of platelet donation process, were used to isolate PBMCs by an IRB-approved protocol. PBMCs were isolated using Histopaque-1077 (Sigma). Monocyte-enriched PBMCs (MEPs) were prepared using cold-aggregation method with slight modifications (30,60) Monocytes were isolated from MEPs or PBMCs using EasySep Human CD14 Positive Selection Kit (STEMCELL Technologies). Flow cytometric verification of isolated CD14+ cells were performed using RPCI core facility services. The MEPs were cultured at an average density of 25-35×10^6/ml in 1 or 2 ml per well in 6- or 12-well standard tissue culture plates under standard conditions (37° C./5% CO2) in RPMI-1640 medium with 10% FBS, 100 U/ml penicillin and […] streptomycin (Mediatech). Isolated CD14+ and CD14− cells were cultured at approximately 5×10^6 cell/ml and 7×10^6 cells per ml densities, respectively. THP-1 and TLA-HEK293T cell lines were purchased from ATCC, and Open Biosystems®, respectively, and cultured in recommended conditions. THP-1 cells were cultured in 10^6 cells per 100 μl in 96-well culture plates in ATCC-formulated-1640 medium (30-2001), whereas 293T cells were cultured in DMEM medium supplemented with 10% FBS.
(§2) Cells were cultured under 1% or 6% O2, 5% CO2 and 94% N2 at 37° C. using Xvivo System (Biospherix). Human ‘universal’ type I IFN was obtained from PBL Assay Science and used at 600 U/ml. Atpenin A5 (Cayman chemical #11898), myxothiazol (Sigma-Aldrich, #T5580) and 2-Thenoyltrifluoroacetone (TTFA) (Sigma-Aldrich, #T27006) were used at 1-2 μM and 400 μM final concentrations, respectively. DFO (Sigma-Aldrich #D9533) and DMOG (Sigma-Aldrich #D3695) were used in 0.5 mM and 1.0 mM final concentrations, respectively.
RNA and plasmid DNA were isolated with commercial kits (TRIzol, Life Technologies and Qiagen, respectively). RNA/DNA was quantified by Nanodrop 2000 (Thermo Fisher). Proteins were quantified using Bio-Rad Dc assay with BSA standards. RNA was reverse transcribed with the Transcriptor First Strand cDNA Synthesis (Roche) kit. SDHB c.136C>U RNA editing was quantified by allele specific RT-qPCR PCR oligonucleotide primers (FIG. 13) were obtained from Integrated DNA Technologies, Inc. ADM, ELL2, HILPDA, NGLY1, MET, TKTL1, VEGFA and B2M gene expression levels was assessed by qPCR using FastStart Taq DNA polymerase and SYBR Green I dye on a LightCycler 480 System (Roche). Quantification cycle values were calculated by the instrument software using the maximum second derivative method and the mean quantification cycle value of duplicate PCR reactions was used for analysis. Delta delta CT method is used to infer gene expression changes.

[2] = system: monocyte-enriched PBMCs (MEPs); experiment: L-Lactate levels in extra-cellular media of MEPs; settings: supernatants of the oxygen consumption assay
Experimental: We first measured oxygen consumption and L-lactate levels to confirm the effect of AtA5 and MXT on mitochondrial respiration in MEPs. We used a phosphorescent oxygen probe (MitoXpress-Xtra) which is quenched by oxygen. Cellular respiration in a closed system depletes oxygen and increases the fluorescence. […] Normoxic induction of RNA editing by MXT is also confirmed in a separate experiment from three additional donors (FIG. 11).
Oxygen consumption was measured using phosphorescent oxygen probe, MitoXpress-Xtra (Cayman Dual Assay Kit, item no. 601060). Monocytes were enriched to >50% purity by short-term cold aggregation and first cultured in standard conditions for 24 hours without treatment to stimulate metabolic activity. Cells were then centrifuged at 200×g for 7 minutes and resuspended in 1 ml RPMI/1% FBS with or without mitochondrial inhibitors. Cells are covered by mineral oil after addition of MitoXpress-Xtra following manufacturer's protocol. The fluorescence was kinetically measured on a plate reader (Synergy H1) at 20 sec intervals for approximately 3 hours (delay 70 μsec, collection time 30 μsec). Supernatants of the oxygen consumption assay were used to measure L-lactate levels following manufacturer's instructions.

[3] = system: HIF-1α; experiment: HIF-1α immunoblot of HEK293T cells
Experimental: as §1, §2
2× Laemmeli buffer (BIO-RAD) was used to prepare whole cell lysates. The lysate resuspended in the Laemmeli buffer was heated at 95° C. for 15 minutes, and 40 μl of the sample was used to perform gel electrophoresis on pre-cast, 4%-15% gradient polyacrylamide gels (Mini-PROTEAN TGX, Bio-Rad) in Laemmeli buffer system. Mouse monoclonal anti-HIF1α (product number GTX628480, GT10211; 1:1000 dilution) and mouse monoclonal anti-β-actin (product number AM4302, AC-15; 1:15,000 dilution) was used to detect HIF-1α or actin, respectively followed by incubation with HRP-conjugated goat anti-mouse antibodies (Life Technologies) at 1:2000 dilution.

[4] = system: hypoxia-response elements (HRE) from PGK1, a HIF-1α target gene; experiment: HRE-luciferase reporter in HEK293T cells; settings: 293T, 6% O2, 24 hours
Experimental: It is possible that HIF-1α may have degraded depending on cell type, time of analysis (24 h) or another factor. Therefore, we further examined the effect of AtA5 in HEK293T embryonic kidney cell line and THP-1 monocytic leukemia cell line over a 24 hour period. Several studies in cell lines have reported normoxic stabilization of HIF-1α upon knocking down MTCII (Selak et al., (2005), Cancer. Cell, 7, 77-85, Guzy et al., (2008), Mol. Cell. Biol., 28, 718-731, Cervera et al., (2008), Cancer Res., 68, 4058-4067). […] Since AtA5 appeared to suppress HIF-1α in mild hypoxia, we exposed the cells to both 6% and 1% O2. […] To confirm the suppression of HIF-regulated gene expression, we used a plasmid construct expressing firefly luciferase under the control of three hypoxia-response elements […] from PGK1, a HIF-1α target gene.
HEK293T cells were cotransfected with the 400 ng of HRE-luciferase (Addgene, plasmid #26731), 1 ng of pRL-SV40 plasmid, 600 ng of pcDNA 3.1(+) (control empty vector) per well at ˜50-60% confluency using jetPRIME (Polyplus-transfection) in 12-well culture plates as per the manufacturer's instructions. Transfection efficiency was 60%-80% as assessed by fluorescent microscopy of cells co-transfected with the pLemiR plasmid DNA (Open Biosystems) for expression of a red fluorescent protein. Cells were harvested 2 days after transfection for measurement of their HRE and Renilla luciferase activities using Dual-Luciferase Reporter Assay System (Promega). HRE expression was quantified as a ratio of HRE/Renilla luciferase activities.

COc1[nH]c(O)c(C(=O)[C@@H](C)C[C@H](C)[C@@H](Cl)CCl)c(=O)c1OC [AtA5, 3-((2S,4S,5R)-5,6-dichloro-2,4-dimethylhexanoyl)-2-hydroxy-5,6-dimethoxypyridin-4(1H)-one]
SDHB c.136 C>U RNA editing, AtA5 together with IFN1 ([1]; hypoxia with IFN1): no additional effect | SDHB c.136 C>U RNA editing ([1]; inhibitor jointly with hypoxia (1% O2), compared to hypoxia alone): did not further increase RNA editing levels | SDHB c.136 C>U RNA editing ([1]; normoxia, 1-3 days): induced SDHB c.C136U RNA editing | SDHB c.136 C>U RNA editing, AtA5 together with IFN1 ([1]; normoxia, IFN1 600 U/ml): additive | L-Lactate levels [2]: increased relative to the degree of respiratory inhibition | stabilization of HIF-1α ([3]; 293T, 1% O2, 24 hours): only at 6% O2 | stabilization of HIF-1α ([3]; 293T, 6% O2, 24 hours): inhibited stabilization of HIF-1α only at 6% O2 | weak HIF-1α expression in normoxia ([3]; HEK293T, normoxia, 24 hours, AtA5 1 μM): suppressed the weak HIF-1α expression in normoxia | stabilization of HIF-1α ([3]; HEK293T, normoxia, 24 hours, DMOG 1 mM, DFO 0.5 mM, AtA5 1 μM): not AtA5 stabilized HIF-1α | HRE-driven expression (ratio of HRE/Renilla luciferase activities) [4]: statistically significantly suppressed

Source: patent US20200375963A1 (priority 2017, published 2020)
